The test has as its target Human immunodeficiency virus type 1 reverse transcriptase (Human immunodeficiency virus 1, UniProt Q72547).
For the molecule `CCOC(=O)/C(N)=C/C(=O)c1cn(Cc2ccc(F)cc2)cc1-c1ccccc1`, the IC50 (as a rule, the concentration at which inhibition is half-maximal) was 72 µM.
Molecule `CCOC(=O)/C(O)=C/C(=O)/C=C/c1cc(C(=O)c2ccc(F)cc2)cn1C` showed an IC50 of 28 µM.
As for `CCOC(=O)/C(O)=C/C(=O)/C=C/c1cn(Cc2ccc(F)cc2)cc1-c1ccccc1`, the IC50 amounted to 3 µM.
`C/C(C(=O)c1cn(Cc2ccc(F)cc2)cc1-c1ccccc1)=C(/O)C(=O)O` showed an IC50 of 64 µM.
In the case of `O=C(/C=C(\O)C(=O)O)/C=C/c1cc(C(=O)c2ccc(F)cc2)cn1Cc1ccccc1` it was 7.5 µM; in that of `Cn1cc(C(=O)c2ccc(F)cc2)cc1/C=C/C(=O)/C=C(\O)C(=O)O`, 20 µM; in that of `N/C(=C\C(=O)c1cn(Cc2ccc(F)cc2)cc1-c1ccccc1)C(=O)O` (mixture of isomers), 2 µM.

The values above are taken from ChEMBL document CHEMBL3414482, “Structure-activity relationship of pyrrolyl diketo acid derivatives as dual inhibitors of HIV-1 integrase and reverse transcriptase ribonuclease H domain” (J Med Chem, 2015).
